Results: US8501770B2 (ArQule, Inc., priority 2009, dated 2013)
Counter-ions that a name gives are not always drawn.

Columns and labels:
[1] = biological target: T1, Full-length inactive AKT1 (Homo sapiens, UniProt P31749); experiment: Inactive Akt HTRF Assay (Akt1)
Protocol: AKT1 activity was assayed using CisBio KinEASE™ HTRF Assay technology. This technology utilizes a proprietary biotinylated peptide substrate (STKS3), streptavidin labeled XL665 antibody, and STK antibody-Eu^3+-cryptate. AKT1 activation was achieved by the addition of the activating kinases PDK1 and MAPKAPK2, lipid vesicles, and ATP. The extent of STKS3 biotinylated peptide phosphorylation was determined using a phospho-STK antibody-Eu^3+-cryptate and streptavidin labeled XL665 antibody. XL665 was stimulated by Eu^3+-cryptate resulting in a TR-FRET signal proportional to the SKS3 phosphorylation level.

[2] = system: BT474; experiment: MTS Assay, cell proliferation, BT474; assay type: cell-based; details: Homo sapiens, BT-474, read-out: Average of [CELL], IC50, MTS (72 hours; 10 Percent; FBS) BT474
Protocol: (§1) Cell proliferation analysis. Cell survival was determined by the MTS assay. Briefly, cells were plated in a 96-well plate at 2,000-10,000 cells per well, cultured for 24 hours in complete growth medium, and then treated with various drugs and drug combinations for 72 hours. MTS was added and incubated for 4 hour, followed by assessment of cell viability using the microplate reader at 570 nm. Data were normalized to untreated controls and analyzed with Microsoft Excel.

[3] = system: A2780; experiment: MTS Assay, cell proliferation, A2780; assay type: cell-based; details: Homo sapiens, read-out: Average of [CELL], IC50, MTS (72 hours; 10 Percent; FBS) A2780
Protocol: as §1

[4] = system: AN3CA; experiment: MTS Assay, cell proliferation, AN3CA; assay type: cell-based; details: Homo sapiens, AN3-CA, read-out: Average of [CELL], IC50, MTS (72 hours; 10 Percent; FBS) AN3CA
Protocol: as §1

[5] = biological target: T1, Full-length inactive AKT1; experiment: Inactive Akt Alpha Screen Assay; assay type: biochemical
Method in brief: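 AlphaScreen read-out (excitation 640 nm, emission 570 nm) after 90 min incubation at room temperature in the dark. Signal comes from crosstide phosphorylation by AKT1, which was activated by added PDK1, MAPKAPK2, ATP and lipid vesicles, captured via phospho-AKT substrate antibody and streptavidin beads.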

[6] = system: LnCap; experiment: MTS Assay, cell proliferation, LnCap; assay type: cell-based; details: Homo sapiens, read-out: Average of [CELL], IC50, MTS (72 hours; 10 Percent; FBS) LnCap
Protocol: as §1

[7] = system: Zr75-1; experiment: MTS Assay, cell proliferation, Zr75-1; assay type: cell-based; details: Homo sapiens, ZR-75-1, read-out: Average of [CELL], IC50, MTS (72 hours; 10 Percent; FBS) Zr75-1
Protocol: as §1

[8] = values not marked with "*", read-out: Akt1 IC50, (AlphaScreen)
[9] = AlphaScreen assay (values not marked with *), read-out: Akt1 IC50, (AlphaScreen) (μM) (or if marked with “*” HTRF assay)

T1 sequence (P31749 whole entry): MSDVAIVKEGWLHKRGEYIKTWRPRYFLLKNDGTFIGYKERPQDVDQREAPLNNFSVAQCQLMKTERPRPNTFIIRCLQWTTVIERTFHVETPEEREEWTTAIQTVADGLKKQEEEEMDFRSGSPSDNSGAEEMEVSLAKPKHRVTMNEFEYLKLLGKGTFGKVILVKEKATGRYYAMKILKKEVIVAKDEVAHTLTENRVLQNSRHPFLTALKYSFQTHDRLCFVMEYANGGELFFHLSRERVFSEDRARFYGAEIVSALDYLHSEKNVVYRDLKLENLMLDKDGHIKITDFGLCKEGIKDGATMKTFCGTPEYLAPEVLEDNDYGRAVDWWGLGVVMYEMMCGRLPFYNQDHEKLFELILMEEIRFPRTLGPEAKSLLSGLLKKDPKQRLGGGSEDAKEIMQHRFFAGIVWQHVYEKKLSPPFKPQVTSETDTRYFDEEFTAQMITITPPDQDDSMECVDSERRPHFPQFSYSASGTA

IC50 [1] [µM] | IC50 [2] [µM] | IC50 [3] [µM] | IC50 [5, 8] [µM] | IC50 [6] [µM] | IC50 [5, 9] [µM] | Structure (SMILES) | IC50 [4] [µM] | IC50 [7] [µM]
22.1 |  |  |  |  |  | Nc1ncccc1-c1nc2cccnc2n1-c1ccc(-n2cncn2)cc1 [Example 31] |  | 
82.8 |  |  |  |  |  | CC(C(=O)NCc1ccc(-n2c(-c3cccnc3N)nc3cccnc32)cc1)c1ccccc1 (stereo not shown) [Example 51, N-{4-[2-(2-aminopyridin-3-yl)-3H-imidazo[4,5-b]pyridin-3-yl]benzyl}-2-phenylpropanamide] |  | 
3.96 |  |  |  |  |  | Nc1ncccc1-c1nc2cccnc2n1-c1ccc(CC(=O)Nc2ccc(Cl)cn2)cc1 [Example 117, 2-{4-[2-(2-aminopyridin-3-yl)-3H-imidazo[4,5-b]pyridin-3-yl]phenyl}-N-(5-chloropyridin-2-yl)acetamide] |  | 
6.84 |  |  |  |  |  | CCCCNC(=O)Cc1ccc(-n2c(-c3cccnc3N)nc3cccnc32)cc1 [Example 132, 2-{4-[2-(2-aminopyridin-3-yl)-3H-imidazo[4,5-b]pyridin-3-yl]phenyl}-N-butylacetamide] |  | 
7.1 |  |  |  |  |  | Nc1ncccc1-c1nc2cc(-c3ccccc3Br)cnc2n1-c1ccc(CNC(=O)c2ccccc2)cc1 [Example 136, N-{4-[2-(2-aminopyridin-3-yl)-6-(2-bromophenyl)-3H-imidazo[4,5-b]pyridin-3-yl]benzyl}benzamide] |  | 
7.8 |  |  |  |  |  | Nc1ncccc1-c1nc2cc(-c3ccc(F)cc3)cnc2n1-c1ccc(CNC(=O)c2ccccc2)cc1 [Example 141, N-{4-[2-(2-aminopyridin-3-yl)-6-(4-fluorophenyl)-3H-imidazo[4,5-b]pyridin-3-yl]benzyl}benzamide] |  | 
4.5 |  |  |  |  |  | Cc1ccc(-c2cnc3c(c2)nc(-c2cccnc2N)n3-c2ccc(CNC(=O)c3ccccc3)cc2)cc1 [Example 144, N-{4-[2-(2-aminopyridin-3-yl)-6-(4-methylphenyl)-3H-imidazo[4,5-b]pyridin-3-yl]benzyl}benzamide] |  | 
8.1 |  |  |  |  |  | Nc1ncccc1-c1nc2cc(Br)cnc2n1-c1ccc(CNS(=O)(=O)c2ccc3ccccc3c2)cc1 [Example 157, N-{4-[2-(2-aminopyridin-3-yl)-6-bromo-3H-imidazo[4,5-b]pyridin-3-yl]benzyl}naphthalene-2-sulfonamide] |  | 
7.1 |  |  |  |  |  | Nc1ncccc1-c1nc2cccnc2n1-c1ccc(C(=O)NCc2ccccc2)cc1 [Example 178, 4-[2-(2-aminopyridin-3-yl)-3H-imidazo[4,5-b]pyridin-3-yl]-N-benzylbenzamide] |  | 
 | 1.3 | 3.3 | 0.013 | 1.9 |  | CC(=O)Nc1cccc(-c2ccc3nc(-c4cccnc4N)n(-c4ccc(CC(=O)Nc5ccccc5)cc4)c3n2)c1 [Example 261, 2-(4-(5-(3-acetamidophenyl)-2-(2-aminopyridin-3-yl)-3H-imidazo[4,5-b]pyridin-3-yl)phenyl)-N-phenylacetamide] | 2.2 | 
 | 1.2 | 1.6 | 0.014 | 2 |  | CC(=O)Nc1cccc(-c2ccc3nc(-c4cccnc4N)n(-c4ccc(CNC(=O)c5ccccc5)cc4)c3n2)c1 [Example 287, N-(4-(5-(3-acetamidophenyl)-2-(2-aminopyridin-3-yl)-3H-imidazo[4,5-b]pyridin-3-yl)benzyl)benzamide] | 1.5 | 
 | 3.2 | 10 | 0.0063 | 17 |  | CC(=O)Nc1cccc(NC(=O)Cc2ccc(-n3c(-c4cccnc4N)nc4ccc(-c5cccc(NC(C)=O)c5)nc43)cc2)c1 [Example 289, N-(3-acetamidophenyl)-2-(4-(5-(3-acetamidophenyl)-2-(2-aminopyridin-3-yl)-3H-imidazo[4,5-b]pyridin-3-yl)phenyl)acetamide] | 12 | 
 | 0.62 | 3.8 | 0.012 | 2.1 |  | CC(=O)Nc1cccc(-c2ccc3nc(-c4cccnc4N)n(-c4ccc(CC(=O)Nc5ccc6nc(C)ccc6c5)cc4)c3n2)c1 [Example 290, 2-(4-(5-(3-acetamidophenyl)-2-(2-amino-pyridin-3-yl)-3H-imidazo[4,5-b]pyridin-3-yl)phenyl)-N-(2-methylquinolin-6-yl)acetamide] | 1.1 | 
 | 0.94 | 7.4 | 0.096 | 0.73 |  | CC(=O)Nc1ccc(-c2ccc3nc(-c4cccnc4N)n(-c4ccc(CNC(=O)c5ccc(C)c(F)c5)cc4)c3n2)cc1 [Example 292, N-(4-(5-(4-acetamidophenyl)-2-(2-aminopyridin-3-yl)-3H-imidazo[4,5-b]pyridin-3-yl)benzyl)-3-fluoro-4-methylbenzamide] | 2.3 | 
 | 1.1 | 3.3 | 0.016 | 0.95 |  | CC(=O)Nc1cccc(-c2ccc3nc(-c4cccnc4N)n(-c4ccc(CC(=O)Nc5cccc(F)c5)cc4)c3n2)c1 [Example 294, 2-(4-(5-(3-acetamidophenyl)-2-(2-aminopyridin-3-yl)-3H-imidazo[4,5-b]pyridin-3-yl)phenyl)-N-(3-fluorophenyl)acetamide] | 1.7 | 
 | 5 | 3.8 | 0.076 | 1.8 |  | Cc1cnc2c(c1)nc(-c1cccnc1N)n2-c1ccc(CC(=O)Nc2ccc3ncccc3c2)cc1 [Example 295, 2-(4-(2-(2-aminopyridin-3-yl)-6-methyl-3H-imidazo[4,5-b]pyridin-3-yl)phenyl)-N-(quinolin-6-yl)acetamide] | 3.3 | 
 | 6.9 | 33 | 0.095 | 3.9 |  | CC(=O)Nc1cccc(-c2ccc3nc(-c4cccnc4N)n(-c4ccc(CC(=O)NC(C)C)cc4)c3n2)c1 [Example 296, 2-(4-(5-(3-acetamidophenyl)-2-(2-aminopyridin-3-yl)-3H-imidazo[4,5-b]pyridin-3-yl)phenyl)-N-isopropylacetamide] | 12 | 
 | 3.6 | 15 | 0.035 | 3 |  | CCCCNC(=O)Cc1ccc(-n2c(-c3cccnc3N)nc3ccc(-c4cccc(NC(C)=O)c4)nc32)cc1 [Example 297, 2-(4-(5-(3-acetamidophenyl)-2-(2-aminopyridin-3-yl)-3H-imidazo[4,5-b]pyridin-3-yl)phenyl)-N-butylacetamide] | 6.5 | 
 | 4.2 | 6.8 | 0.012 | 13 |  | Nc1ncccc1-c1nc2ccc(-c3cn[nH]c3)nc2n1-c1ccc(CNC(=O)c2cccc(F)c2)cc1 [Example 305, N-(4-(2-(2-aminopyridin-3-yl)-5-(1H-pyrazol-4-yl)-3H-imidazo[4,5-b]pyridin-3-yl)benzyl)-3-fluorobenzamide] | 12 | 8.2
 | 3.6 | 2.9 | 0.035 | 4.9 |  | Nc1ncccc1-c1nc2ccc(-c3ccoc3)nc2n1-c1ccc(CNC(=O)c2cccc(F)c2)cc1 [Example 307, N-(4-(2-(2-aminopyridin-3-yl)-5-(furan-3-yl)-3H-imidazo[4,5-b]pyridin-3-yl)benzyl)-3-fluorobenzamide] | 6.3 | 9.1
 | 1.8 | 2.3 | 0.021 | 2.6 |  | Nc1ncccc1-c1nc2ccc(-c3cccc(CO)c3)nc2n1-c1ccc(CNC(=O)c2cccc(F)c2)cc1 [Example 308, N-(4-(2-(2-aminopyridin-3-yl)-5-(3-(hydroxymethyl)phenyl)-3H-imidazo[4,5-b]pyridin-3-yl)benzyl)-3-fluorobenzamide] | 2.5 | 4.3
 | 6.1 | 13 | 0.1 | 5.7 |  | Nc1ncccc1-c1nc2ccc(-c3cccnc3)nc2n1-c1ccc(CNC(=O)c2cccc(F)c2)cc1 [Example 333, N-(4-(2-(2-aminopyridin-3-yl)-5-(pyridin-3-yl)-3H-imidazo[4,5-b]pyridin-3-yl)benzyl)-3-fluorobenzamide] | 12 | 
 |  |  |  |  | 0.0058 | Nc1ncccc1-c1nc2ccc(-c3ccc(N4CCOCC4)cc3)nc2n1-c1ccc(C2(N)CCC2)cc1 [Example 465, 3-{3-[4-(1-aminocyclobutyl)phenyl]-5-(4-morpholin-4-ylphenyl)-3H-imidazo[4,5-b]pyridin-2-yl}pyridin-2-amine hydrochloride] |  | 
 |  |  |  |  | 0.0035 | Nc1ncccc1-c1nc2ccc(-c3cccc(N4CCOCC4=O)c3)nc2n1-c1ccc(C2(N)CCC2)cc1 [Example 466, 4-(3-{3-[4-(1-aminocyclobutyl)phenyl]-2-(2-aminopyridin-3-yl)-3H-imidazo[4,5-b]pyridin-5-yl}phenyl)morpholin-3-one hydrochloride] |  | 
